Measured values published in patent US10787452B2 (Vertex Pharmaceuticals Incorporated, priority 2012, dated 2020).

System: HCT116 colorectal cancer cells
Experiment: Cisplatin sensitization assay (96 h cell viability MTS);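 also: compound concentration needed to lower the Cisplatin-alone IC50 by a set fold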
Assay type: cell-based
Conditions: 96 h MTS, compound plus Cisplatin
Procedure, shortened: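 Full-matrix combination: compound × cisplatin, 2-fold dilutions from 10 μM top final, co-added; 96 h, 37° C, 5% CO2; MTS read-out after 1 h.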

| Compound | Cisplatin Sensitization Assay |
| --- | --- |
| CCOc1ccncc1NC(=O)c1c(N)nn2cc(CC#N)cnc12 [I-O-28, 2-amino-6-(cyanomethyl)-N-(4-ethoxypyridin-3-yl)pyrazolo[1,5-a]pyrimidine-3-carboxamide] | +++ (Compounds with a Cisplatin sensitization value of <0.02 μM are marked with “+++.”) |
| CNCCCN(C)C(=O)C1CCN(c2c(F)cncc2NC(=O)c2c(N)nn3cc(F)cnc23)CC1 [I-G-17] | + (Compounds with a Cisplatin sensitization value >0.2 μM but <5 μM are marked with “+.”) |
| CN1CCC(c2ccncc2NC(=O)c2c(N)nn3cc(F)cnc23)CC1=O (centres unmarked) [I-C-73, 2-amino-6-fluoro-N-(4-(1-methyl-2-oxopiperidin-4-yl)pyridin-3-yl)pyrazolo[1,5-a]pyrimidine-3-carboxamide] | ++ (Compounds with a Cisplatin sensitization value >0.02 μM but <0.2 μM are marked with “++.”) |
| Nc1nn2cc(F)cnc2c1C(=O)Nc1cncc(F)c1N1CCC(C(=O)N2CCN(C3CC3)CC2)CC1 [I-G-13, 2-amino-N-(4-(4-(4-cyclopropylpiperazine-1-carbonyl)piperidin-1-yl)-5-fluoropyridin-3-yl)-6-fluoropyrazolo[1,5-a]pyrimidine-3-carboxamide] | +++ (Compounds with a Cisplatin sensitization value of <0.02 μM are marked with “+++.”) |
| CN1CCC(NC(=O)C2CCN(c3c(F)cncc3NC(=O)c3c(N)nn4cc(F)cnc34)CC2)CC1 [I-G-20, 2-amino-6-fluoro-N-(5-fluoro-4-(4-((1-methylpiperidin-4-yl)carbamoyl)piperidin-1-yl)pyridin-3-yl)pyrazolo[1,5-a]pyrimidine-3-carboxamide] | + (Compounds with a Cisplatin sensitization value >0.2 μM but <5 μM are marked with “+.”) |
| Cc1cncc(NC(=O)c2c(N)nn3cc(F)cnc23)c1N1CCN(C2CCOCC2)CC1 [I-N-123, 2-amino-6-fluoro-N-(5-methyl-4-(4-(tetrahydro-2H-pyran-4-yl)piperazin-1-yl)pyridin-3-yl)pyrazolo[1,5-a]pyrimidine-3-carboxamide] | ++ (Compounds with a Cisplatin sensitization value >0.02 μM but <0.2 μM are marked with “++.”) |
| Nc1nn2cc(F)cnc2c1C(=O)Nc1cncc(F)c1N1CCN(S(=O)(=O)C2COC2)CC1 [I-N-201] | +++ (Compounds with a Cisplatin sensitization value of <0.02 μM are marked with “+++.”) |
| Nc1nn2cc(F)cnc2c1C(=O)Nc1cnccc1N1CCN2CCOC[C@@H]2C1 [I-N-115, (S)-2-amino-6-fluoro-N-(4-(hexahydropyrazino[2,1-c][1,4]oxazin-8(1H)-yl)pyridin-3-yl)pyrazolo[1,5-a]pyrimidine-3-carboxamide] | +++ (Compounds with a Cisplatin sensitization value of <0.02 μM are marked with “+++.”) |
| Cc1nonc1N1CCN(c2ccncc2NC(=O)c2c(N)nn3cc(F)cnc23)CC1 [I-N-260, 2-amino-6-fluoro-N-(4-(4-(4-methyl-1,2,5-oxadiazol-3-yl)piperazin-1-yl)pyridin-3-yl)pyrazolo[1,5-a]pyrimidine-3-carboxamide] | +++ (Compounds with a Cisplatin sensitization value of <0.02 μM are marked with “+++.”) |
| CN1CCC(C(=O)N2CCN(c3c(F)cncc3NC(=O)c3c(N)nn4cc(F)cnc34)CC2)CC1 [I-N-128, 2-amino-6-fluoro-N-(5-fluoro-4-(4-(1-methylpiperidine-4-carbonyl)piperazin-1-yl)pyridin-3-yl)pyrazolo[1,5-a]pyrimidine-3-carboxamide] | +++ (Compounds with a Cisplatin sensitization value of <0.02 μM are marked with “+++.”) |
| CC(C)(C#N)c1cnc2c(C(=O)Nc3cnccc3N3CCN(C4COC4)CC3)c(N)nn2c1 [I-N-142, 2-amino-6-(2-cyanopropan-2-yl)-N-(4-(4-(oxetan-3-yl)piperazin-1-yl)pyridin-3-yl)pyrazolo[1,5-a]pyrimidine-3-carboxamide] | ++ (Compounds with a Cisplatin sensitization value >0.02 μM but <0.2 μM are marked with “++.”) |
| Nc1nn2cc(F)cnc2c1C(=O)Nc1cncc(F)c1C1=CCN(C2COC2)CC1 [I-C-12, 2-amino-6-fluoro-N-(5-fluoro-1′-(oxetan-3-yl)-1′,2′,3′,6′-tetrahydro-[4,4′-bipyridin]-3-yl)pyrazolo[1,5-a]pyrimidine-3-carboxamide] | +++ (Compounds with a Cisplatin sensitization value of <0.02 μM are marked with “+++.”) |
| Nc1nn2cc(F)cnc2c1C(=O)Nc1cncc(Cl)c1N1CCC(C(=O)N2CCN3CCC2C3)CC1 (centres unmarked) [I-G-69, N-(4-(4-(1,4-diazabicyclo[3.2.1]octane-4-carbonyl)piperidin-1-yl)-5-chloropyridin-3-yl)-2-amino-6-fluoropyrazolo[1,5-a]pyrimidine-3-carboxamide] | +++ (Compounds with a Cisplatin sensitization value of <0.02 μM are marked with “+++.”) |
| Nc1nn2cc(F)cnc2c1C(=O)Nc1cncc(F)c1N1CCC(C(=O)N2CC(N3CCCC3)C2)CC1 [I-G-43, 2-amino-6-fluoro-N-(5-fluoro-4-(4-(3-(pyrrolidin-1-yl)azetidine-1-carbonyl)piperidin-1-yl)pyridin-3-yl)pyrazolo[1,5-a]pyrimidine-3-carboxamide] | +++ (Compounds with a Cisplatin sensitization value of <0.02 μM are marked with “+++.”) |
| CN1CCN(c2ccncc2NC(=O)c2c(N)nn3cc(Cl)cnc23)CC1 [I-N-59, 2-amino-6-chloro-N-(4-(4-methylpiperazin-1-yl)pyridin-3-yl)pyrazolo[1,5-a]pyrimidine-3-carboxamide] | ++ (Compounds with a Cisplatin sensitization value >0.02 μM but <0.2 μM are marked with “++.”) |
| Cc1ccncc1-c1ccncc1NC(=O)c1c(N)nn2cc(F)cnc12 [I-C-30, 2-amino-6-fluoro-N-(4-methyl-[3,4′-bipyridin]-3′-yl)pyrazolo[1,5-a]pyrimidine-3-carboxamide] | +++ (Compounds with a Cisplatin sensitization value of <0.02 μM are marked with “+++.”) |
| Nc1nn2cc(Cl)cnc2c1C(=O)Nc1cnccc1N1CCC(N2CCOCC2)CC1 [I-N-104, 2-amino-6-chloro-N-(4-(4-morpholinopiperidin-1-yl)pyridin-3-yl)pyrazolo[1,5-a]pyrimidine-3-carboxamide] | +++ (Compounds with a Cisplatin sensitization value of <0.02 μM are marked with “+++.”) |
| CCN1CCCC1C(=O)N1CCN(c2c(F)cncc2NC(=O)c2c(N)nn3cc(F)cnc23)CC1 (centres unmarked) [I-N-185, 2-amino-N-(4-(4-(1-ethylpyrrolidine-2-carbonyl)piperazin-1-yl)-5-fluoropyridin-3-yl)-6-fluoropyrazolo[1,5-a]pyrimidine-3-carboxamide] | ++ (Compounds with a Cisplatin sensitization value >0.02 μM but <0.2 μM are marked with “++.”) |
| Nc1nn2cc(F)cnc2c1C(=O)Nc1cncc(F)c1N1CC(=O)N2CCCC2C1 (centres unmarked) [I-N-232, 2-amino-6-fluoro-N-(5-fluoro-4-(4-oxohexahydropyrrolo[1,2-a]pyrazin-2(1H)-yl)pyridin-3-yl)pyrazolo[1,5-a]pyrimidine-3-carboxamide] | ++ (Compounds with a Cisplatin sensitization value >0.02 μM but <0.2 μM are marked with “++.”) |
| COc1ccncc1NC(=O)c1c(N)nn2cc(Cl)cnc12 [I-O-57, 2-amino-6-chloro-N-(4-methoxypyridin-3-yl)pyrazolo[1,5-a]pyrimidine-3-carboxamide] | +++ (Compounds with a Cisplatin sensitization value of <0.02 μM are marked with “+++.”) |
| Nc1nn2cc(F)cnc2c1C(=O)Nc1cnccc1N1CCN([C@@H]2CCOC2)CC1 [I-N-10, (R)-2-amino-6-fluoro-N-(4-(4-(tetrahydrofuran-3-yl)piperazin-1-yl)pyridin-3-yl)pyrazolo[1,5-a]pyrimidine-3-carboxamide] | ++ (Compounds with a Cisplatin sensitization value >0.02 μM but <0.2 μM are marked with “++.”) |
| CN1CCCN(c2ccncc2NC(=O)c2c(N)nn3cc(Cl)cnc23)CC1 [I-N-43, 2-amino-6-chloro-N-(4-(4-methyl-1,4-diazepan-1-yl)pyridin-3-yl)pyrazolo[1,5-a]pyrimidine-3-carboxamide] | ++ (Compounds with a Cisplatin sensitization value >0.02 μM but <0.2 μM are marked with “++.”) |
| Nc1nn2cc(Cl)cnc2c1C(=O)Nc1cnccc1OCC(F)(F)F [I-O-59, 2-amino-6-chloro-N-(4-(2,2,2-trifluoroethoxy)pyridin-3-yl)pyrazolo[1,5-a]pyrimidine-3-carboxamide] | +++ (Compounds with a Cisplatin sensitization value of <0.02 μM are marked with “+++.”) |
| Nc1nn2cc(Cl)cnc2c1C(=O)Nc1cnccc1O[C@H]1C[C@@]2(CCN2)C1 [I-O-79, N-(4-((4r,6s)-1-azaspiro[3.3]heptan-6-yloxy)pyridin-3-yl)-2-amino-6-chloropyrazolo[1,5-a]pyrimidine-3-carboxamide] | ++ (Compounds with a Cisplatin sensitization value >0.02 μM but <0.2 μM are marked with “++.”) |
| Nc1nn2cc(F)cnc2c1C(=O)Nc1cnccc1-c1ccnnc1 [I-C-26, 2-amino-6-fluoro-N-(4-(pyridazin-4-yl)pyridin-3-yl)pyrazolo[1,5-a]pyrimidine-3-carboxamide] | ++ (Compounds with a Cisplatin sensitization value >0.02 μM but <0.2 μM are marked with “++.”) |
| Nc1nn2cc(Cl)cnc2c1C(=O)Nc1cncc(F)c1N1CCC(C(=O)N2CCN3CCC2CC3)CC1 [I-G-87, N-(4-(4-(1,4-diazabicyclo[3.2.2]nonane-4-carbonyl)piperidin-1-yl)-5-fluoropyridin-3-yl)-2-amino-6-chloropyrazolo[1,5-a]pyrimidine-3-carboxamide] | +++ (Compounds with a Cisplatin sensitization value of <0.02 μM are marked with “+++.”) |
